Data from patent publication US20220031680A1, “Donecopride As Neuroprotective Agent In the Treatment of Neurodegenerative Diseases” (priority 2018, published 2022).

Tested on: C57Bl6/J mice challenged with an intracerebroventricular injection of Aβ1-42 oligomers (AβO)
Assay: Novel Object Recognition assay in mice icv injected with AβO
Type: in vivo, mouse
Conditions: for mean discrimination index (NOR): day +16; for AβO-induced impairment of recognition memory (NOR): at all doses (1, 3, 9 mg/kg/day po)
Procedure: Briefly, 144 C57Bl6/J male mice (3 months of age) were received and housed (4 to 5 per cage) in quarantine during 7 days, or longer. Test items were dosed per os (through oral gavage) once daily at different concentrations from day −1 to day +17.
At days +15/+16, recognition memory was investigated using the Novel Object recognition test (NOR).
The different experimental groups are defined as follow: • GROUP A (vehicle CTRL): po vehicle AND icv injection of vehicle (n=12) • GROUP B (APO CTRL): po vehicle AND icv injection of AβO (n=12) • GROUP C (positive CTRL): po Donepezil subchronic AND icv injection of AβO (n=12) • GROUP D (Donecopride CTRL): po Donecopride (9 mg/kg) AND icv injection of vehicle (n=12) • GROUP E (Flucopride CTRL): po Flucopride (9 mg/kg) AND icv injection of vehicle (n=12) • GROUP F (Donecopride Treated): po Donecopride (1 mg/kg) AND icv injection of AβO (n=12) • GROUP G (Donecopride Treated): po Donecopride (3 mg/kg) AND icv injection of AβO (n=12) • GROUP H (Donecopride Treated): po Donecopride (9 mg/kg) AND icv injection of AβO (n=12) • GROUP I (Fluocopride Treated): po Flucopride (1 mg/kg) AND icv injection of AβO (n=12) • GROUP J (Flucopride Treated): po Flucopride (3 mg/kg) AND icv injection of AβO (n=12) • GROUP K (Flucopride Treated): po Flucopride (9 mg/kg) AND icv injection of AβO (n=12) • GROUP L (positive CTRL): ip Donepezil acute on test days AND icv injection of AβO (n=12)
For per os dosing, Donecopride and Flucopride were formulated by solubilization in 0.9% NaCl. Compound dosing (total volume of 200 μL) started one day before induction of the disease (through icv injection of AβO) and was done for 19 consecutive days.
Single intra-cerebroventricular injection of 144 mice with vehicle or APO (max. 24 mice per day, all mice randomized): under anesthesia (ip injection of a mixture of ketamine/xylasine at a dose of 110 and 15 mg/kg, respectively) AβO (1 μL), or vehicle (1 μL) were injected into the right lateral ventricle. Injections were made using 10 μL Hamilton micro syringes fitted with a 26-gauge needle. The procedure was terminated by a subcutaneous injection of metacam (analgesia) at a dose of 5 mg/kg. Animals were then placed individually in their home-cage and the cage was placed in a heated cabinet until the animal has fully recovered. Animals were carefully monitored to control recovery after anesthesia.
Preparation of APO: Aβ1-42 was obtained from Bachem (ref H1368) (batch number: 1052301). The preparation of stable Aβ1-42 oligomers was performed as described in Garcia et al. (2010) J. Neurosci. 30:7516-7527. The oligomeric preparation (identified as Batch #2016-14) contained a mixture of stable trimers and tetramers of Aβ1-42, as well as monomeric forms of the peptide. All oligomer preparations used were previously characterized in terms of oligomer composition and in vitro neurotoxicity.
6 independent trials involving each 24 mice (i.e. 2 mice from each experimental group) for a total of 144 mice at day +4—Behavioral tests were performed 1 h after dosing.
Detailed protocol: One day before the cognitive test (i.e. at day +15), mice are habituated during a 10 minutes' trial during which they are placed in an empty open field. The day of the cognitive test (i.e. day +16), animals are placed in the same open field and are allowed to explore freely two identical objects for a trial of five minutes (acquisition trial). Then the animals are returned in their home-cage for an inter-trial time of five minutes. During the retention trial, animals are allowed to explore two different objects: one familiar and one novel object. During this time, the experimenter, blind to the treatment, record the time the mouse is actively exploring each object. All trials are video recorded (Smart v3.0 software, Bioseb). A discrimination index is then generated: Discrimination index=(time exploring novel object−time exploring familiar object)/total exploration time. […]

Row | Structure (SMILES) | mean discrimination index (NOR) (ip acute on test day, icv AβO (Group L)) | mean discrimination index (NOR) (po sub-chronic, icv AβO (Group C)) | mean discrimination index (NOR) (9 mg/kg/day po, icv AβO) | mean discrimination index (NOR) (9 mg/kg/day po, icv vehicle) | AβO-induced impairment of recognition memory (NOR) (icv AβO) | mean discrimination index (NOR) (3 mg/kg/day po, icv AβO)
1 | COc1cc2c(cc1OC)C(=O)C(CC1CCN(Cc3ccccc3)CC1)C2 (centres unmarked) [Donepezil, reference compound] | 0.30±0.07 | 0.29±0.09 | – | – | – | –
2 | COc1cc(N)c(Cl)cc1C(=O)CCC1CCN(CC2CCCCC2)CC1 [Donecopride] | – | – | 0.43±0.06 | 0.29±0.04 | dose-dependent inhibition | –
3 | COc1cc(N)c(F)cc1C(=O)CCC1CCN(CC2CCCCC2)CC1 [Flucopride] | – | – | – | 0.36±0.06 | dose-dependent inhibition (bell-shaped curve) | 0.46±0.05
